Assay results: ChEMBL document CHEMBL1148784, “Synthesis and structure-affinity relationships of new 4-(6-iodo-H-imidazo[1,2-a]pyridin-2-yl)-N-dimethylbenzeneamine derivatives as ligands for human beta-amyloid plaques” (J Med Chem, 2007)

Biological target: Amyloid-beta precursor protein (Homo sapiens, UniProt P05067)
Experiment: Binding affinity to human beta amyloid plaque in alzheimer's disease patient brain

Amyloid-beta precursor protein, sequence (P05067 whole entry): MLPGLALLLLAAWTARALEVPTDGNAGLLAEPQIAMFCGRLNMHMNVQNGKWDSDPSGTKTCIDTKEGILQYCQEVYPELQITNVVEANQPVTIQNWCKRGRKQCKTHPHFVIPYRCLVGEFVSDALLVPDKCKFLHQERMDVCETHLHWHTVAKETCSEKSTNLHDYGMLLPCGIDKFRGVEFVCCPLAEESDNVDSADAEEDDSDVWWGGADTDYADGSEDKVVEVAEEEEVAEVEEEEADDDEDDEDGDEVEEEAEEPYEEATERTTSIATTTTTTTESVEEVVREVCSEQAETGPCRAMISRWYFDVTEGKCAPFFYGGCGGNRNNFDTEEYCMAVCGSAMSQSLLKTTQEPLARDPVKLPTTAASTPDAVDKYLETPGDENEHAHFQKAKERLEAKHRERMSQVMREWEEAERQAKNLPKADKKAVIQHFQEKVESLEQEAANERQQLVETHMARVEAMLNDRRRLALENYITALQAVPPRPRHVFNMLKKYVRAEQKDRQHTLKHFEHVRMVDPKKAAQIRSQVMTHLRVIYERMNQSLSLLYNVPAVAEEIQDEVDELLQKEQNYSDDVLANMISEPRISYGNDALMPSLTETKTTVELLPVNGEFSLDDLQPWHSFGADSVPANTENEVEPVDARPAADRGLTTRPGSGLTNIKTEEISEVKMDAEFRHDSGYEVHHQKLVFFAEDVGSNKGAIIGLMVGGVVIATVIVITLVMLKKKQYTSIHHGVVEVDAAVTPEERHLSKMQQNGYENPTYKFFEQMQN

With CNc1ccc(-c2cn3cc(Br)ccc3n2)cc1C the Ki was > 1000 nM.

A Ki of 183 nM was found for CN(C)c1ccc(-c2cn3cc(Br)cc(I)c3n2)cc1 in this work.

For CN(C)c1ccc(-c2cn3cc(Br)cc(C#N)c3n2)cc1, the Ki was > 180 nM.

In the case of CC(=O)N(C)c1ccc(-c2cn3cc(Br)ccc3n2)cc1C, the Ki is reported as > 1000 nM.

For CNc1ccc(-c2cn3cc(SCC(N)=O)ccc3n2)cc1C, the Ki was > 1000 nM.

In the case of CNc1ccc(-c2cn3cc(SCCO)ccc3n2)cc1C, the Ki is reported as > 1000 nM.

CN(C(=O)C(F)(F)F)c1ccc(-c2cn3cc(Br)ccc3n2)cc1Br was tested, and the Ki was > 1000 nM.

Cc1cc(-c2cn3cc(Br)ccc3n2)ccc1NC(=O)C(F)(F)F was tested, and the Ki was > 1000 nM.
